Several values for one entry are separate records, joined by “and”; a condition that tells them apart may be missing. Equal values may be shown once.
Experiments:
HepG2 xenograft = HepG2 xenograft nude mice model, tumor growth inhibition; type: in vivo, BALB/c nude mice
Description: The mice were randomized into control group, 3-treated groups and positive control group (n = 6). Once the tumor had grown to an average volume of about 100 mm^3, two group of nude mice were injected intraperitoneally (ip) of 3 at a high dose (6.0 mg/kg) and a low (3.0 mg/kg) dose daily for 20 days, respectively. Cisplatin was used as positive control injected at 2.0 mg/kg every two days, while control group received solvents only.
BALB/c nude mice (male, 17–20 g, 5–6 weeks old) were supplied by Guangxi Medical University Laboratory Animal Centre (Guangxi, China, approval no. SCXK 2014–0002 and SYXK 2014–0003). All of the experimental procedures were carried out according to the NIH Guidelines for the Care and Use of Laboratory Animals. Animal experiments were approved by the Animal Care and Use Committee of Guangxi Medical University. Animal were housed at IVC system (individual ventilated caging) with conditions of constant photoperiod (12 h light/12 h dark at 25−28 °C and 45−65% humidity). The xenograft tumor model was established in the same way as we reported before[30]. The maximum solubility of 3 in DMSO/saline solvent (v/v, 5/100) with administration volume 0.8 mL/20 g was used as the high dose (6.0 mg/kg) group (n = 6). Meanwhile low dose group mice got 3.0 mg/kg, intraperitoneal injection every day, and the control group received corresponding solvent. The positive control group was administered with cisplatin at 2.0 mg/kg every two days by intraperitoneal injection (cisplatin dissolved in saline).
The tumor volumes and body weight were measured every 3 days, and tumor size was calculated as volume = (w^2l)/2, where w is the width and l is the length in mm of tumor[70]. On day 21, the mice were sacrificed, and the tumor tissue was dissected out and weighted. The in vivo antitumor activity is evaluated by two indicators[71][72]: the tumor relative increment rate (T/C = TRTV/CRTV × 100%) and tumor weight inhibition rate [IR = (Wc − Wt)/Wc × 100%,], where TRTV and CRTV were the RTV of treated group and control group, respectively (RTV: relative tumor volume, RTV = Vt /V0); Wt and Wc are the average tumor weight of complex-treated and vehicle controlled group, respectively.

caspase-3 = assay: Caspase-3 activation by flow cytometry (CaspGLOW); type: cell-based, human; settings: HepG2, 1.0 μM, 24 h; control 4.2%
Description: Caspase family is closely related to the cell apoptosis via the mitochondrial pathway, especially caspases-3, -8 and -9. To better understand the antitumor mechanisms, it needs to confirm whether caspase-3, -8 and -9 are activated when the tumor cells are treated with 1–3.
The measurement of caspase-3, -8 and -9’s activities was performed by CaspGLOW fluorescein active caspase-3, -8 and -9 staining kit. HepG2 cells were treated with 1 μM 1–3 for 24 h, harvested at a density of 1 × 10^6 cells/mL, and then suspended in 300 μL volume with PBS. To the suspension, 1 μL of caspase-3 inhibitor (FITC-DEVD-FMK), caspase-8 inhibitor (FITC-IETD-FMK) or caspase-9 inhibitor (FITC-LEHD-FMK) was consequently added and incubated for 1 h at 37 °C in 5% CO2 incubator. The cells were then examined by a FACSAria II flow cytometer equipped with a 488 nm argon laser. The results were represented as the percent change on the activity compared with the control.

## [Zn(OD)2(H2O)2] (ClO4)2 [Complex 3]
HepG2 xenograft; 3.0 mg/kg ip daily for 20 days
  IR (tumor weight inhibition rate): 26.4%
  T/C (tumor relative increment rate): 75.49%
HepG2 xenograft; 6.0 mg/kg ip daily for 20 days
  IR (tumor weight inhibition rate): 32.8%
  T/C (tumor relative increment rate): 55.57%
caspase-3
  proportion of activated caspase-3: 36.9% and 36.5%

Reference: article PMC5402304, “Oxoaporphine Metal Complexes (Co^II, Ni^II, Zn^II) with High Antitumor Activity by Inducing Mitochondria-Mediated Apoptosis and S-phase Arrest in HepG2” (Scientific Reports, 2017)
